According to patent US9834571B2, “Compounds for inhibiting cell proliferation in EGFR-driven cancers” (ARIAD Pharmaceuticals, Inc., priority 2012, dated 2017):

How the values were obtained:
[1] = tested on: BaF3 cells expressing wildtype EGFR; assay: Antiproliferative activity (MTT) against control BaF3 cells expressing wildtype EGFR; type: cell-based; settings: Mus musculus, BAF3 parental cells
Summary of the method: (§1)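 Compounds were tested on BaF3 cells bearing target EGFR mutations and on control BaF3 cells with wildtype EGFR; viability was then determined by MTT.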

[2] = biological target: human EGFR (native sequence) (Homo sapiens, UniProt P00533); assay: Kinase inhibitory activity against human EGFR (native sequence); type: biochemical; settings: 10 pt curves, 3 μM top concentration, 10 μM ATP; read-out: IC50 for kinase inhibition, EGFR
human EGFR (native sequence), sequence (P00533 25-1210): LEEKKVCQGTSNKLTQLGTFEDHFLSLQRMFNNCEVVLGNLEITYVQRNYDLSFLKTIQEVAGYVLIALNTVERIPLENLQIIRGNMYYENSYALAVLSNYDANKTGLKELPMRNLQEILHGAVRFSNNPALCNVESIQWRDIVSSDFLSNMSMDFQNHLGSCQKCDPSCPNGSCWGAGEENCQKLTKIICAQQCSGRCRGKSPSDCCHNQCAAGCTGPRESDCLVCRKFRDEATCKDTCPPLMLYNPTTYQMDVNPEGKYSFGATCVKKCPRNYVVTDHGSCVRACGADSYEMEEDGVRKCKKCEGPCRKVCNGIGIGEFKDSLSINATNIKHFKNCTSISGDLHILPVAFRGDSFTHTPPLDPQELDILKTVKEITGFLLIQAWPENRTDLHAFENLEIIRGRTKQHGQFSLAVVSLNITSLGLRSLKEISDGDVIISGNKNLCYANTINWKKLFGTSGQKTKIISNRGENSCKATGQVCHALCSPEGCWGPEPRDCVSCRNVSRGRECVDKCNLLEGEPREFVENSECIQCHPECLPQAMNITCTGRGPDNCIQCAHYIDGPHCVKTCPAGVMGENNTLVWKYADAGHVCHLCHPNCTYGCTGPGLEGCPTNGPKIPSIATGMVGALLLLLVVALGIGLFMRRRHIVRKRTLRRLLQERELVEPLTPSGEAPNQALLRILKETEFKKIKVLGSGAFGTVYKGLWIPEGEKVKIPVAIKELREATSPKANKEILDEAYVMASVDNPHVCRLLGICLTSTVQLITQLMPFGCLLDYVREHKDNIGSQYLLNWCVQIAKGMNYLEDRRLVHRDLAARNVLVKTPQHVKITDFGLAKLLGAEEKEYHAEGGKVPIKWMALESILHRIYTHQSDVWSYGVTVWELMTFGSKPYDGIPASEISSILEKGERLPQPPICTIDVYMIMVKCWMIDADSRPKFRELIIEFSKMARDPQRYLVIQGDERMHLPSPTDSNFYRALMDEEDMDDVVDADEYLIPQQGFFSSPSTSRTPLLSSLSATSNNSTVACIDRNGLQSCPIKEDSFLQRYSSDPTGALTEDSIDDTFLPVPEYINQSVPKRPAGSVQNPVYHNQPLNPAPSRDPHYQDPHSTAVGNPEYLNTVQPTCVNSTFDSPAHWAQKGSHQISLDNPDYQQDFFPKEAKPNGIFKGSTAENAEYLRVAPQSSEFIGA
Summary of the method: (§2)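 With ATP at 10 μM, single-replicate 10-point dose curves starting at 3 μM top concentration were run against each EGFR form: wild-type, L858R, and the L858R/T790M double mutant.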

EGFR L858R/T790M = EGFR L858R/T790M (Homo sapiens, UniProt P00533, L858R/T790M); assay: Kinase inhibitory activity against EGFR bearing the L858R/T790M double mutation; type: biochemical; settings: 10 pt curves, 3 μM top concentration, 10 μM ATP; read-out: IC50 for kinase inhibition, EGFR L858R T790M
EGFR L858R/T790M, sequence (P00533 25-1210 T790M/L858R): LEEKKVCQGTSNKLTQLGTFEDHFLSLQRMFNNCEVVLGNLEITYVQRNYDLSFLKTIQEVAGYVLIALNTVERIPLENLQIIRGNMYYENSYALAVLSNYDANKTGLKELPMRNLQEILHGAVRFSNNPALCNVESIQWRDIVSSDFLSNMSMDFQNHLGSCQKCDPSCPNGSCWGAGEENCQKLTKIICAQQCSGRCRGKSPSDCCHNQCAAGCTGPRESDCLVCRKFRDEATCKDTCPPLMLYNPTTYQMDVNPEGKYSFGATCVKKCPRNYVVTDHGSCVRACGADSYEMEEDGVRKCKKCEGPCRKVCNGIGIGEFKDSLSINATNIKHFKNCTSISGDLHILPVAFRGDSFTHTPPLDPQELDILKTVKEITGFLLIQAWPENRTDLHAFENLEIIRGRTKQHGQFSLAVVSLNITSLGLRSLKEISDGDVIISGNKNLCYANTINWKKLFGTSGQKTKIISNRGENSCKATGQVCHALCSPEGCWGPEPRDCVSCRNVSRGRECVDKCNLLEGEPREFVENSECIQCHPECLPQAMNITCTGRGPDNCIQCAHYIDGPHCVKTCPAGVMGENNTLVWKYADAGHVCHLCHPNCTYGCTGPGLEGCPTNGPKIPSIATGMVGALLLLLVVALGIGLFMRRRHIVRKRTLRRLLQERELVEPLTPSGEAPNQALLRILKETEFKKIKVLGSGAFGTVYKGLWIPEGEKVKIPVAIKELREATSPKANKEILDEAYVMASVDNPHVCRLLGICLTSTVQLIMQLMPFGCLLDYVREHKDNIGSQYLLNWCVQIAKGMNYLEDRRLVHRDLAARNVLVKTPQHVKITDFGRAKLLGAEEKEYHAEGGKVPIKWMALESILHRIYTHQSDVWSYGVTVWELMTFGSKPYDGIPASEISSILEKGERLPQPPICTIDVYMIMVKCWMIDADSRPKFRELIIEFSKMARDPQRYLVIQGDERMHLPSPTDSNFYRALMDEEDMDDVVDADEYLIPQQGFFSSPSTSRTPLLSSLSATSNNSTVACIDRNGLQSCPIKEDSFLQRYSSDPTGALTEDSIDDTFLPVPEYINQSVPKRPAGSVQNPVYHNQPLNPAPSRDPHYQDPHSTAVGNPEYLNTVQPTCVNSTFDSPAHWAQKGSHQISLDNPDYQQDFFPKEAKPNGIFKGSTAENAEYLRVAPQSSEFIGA
Summary of the method: as §2

[3] = biological target: T1, BaF3 cells expressing the target EGFR mutations (Homo sapiens, UniProt P00533, T790M, cells depend on it, form not given); assay: Antiproliferative activity (MTT) against BaF3 cells expressing the target EGFR mutations; type: cell-based; settings: BAF3 EGFR DEL T790M PURO POOL cells, read-out: IC50, BAF3 EGFR DEL T790M PURO POOL
T1 construct: IC50, BAF3 EGFR DEL T790M PURO POOL; other: BAF3 EGFR DEL T790M PURO POOL cells, MTT; other: BAF3 EGFR DEL T790M PURO POOL cells; MTT
Summary of the method: as §1

[4] = biological target: T2, BaF3 cells expressing the target EGFR mutations (Homo sapiens, UniProt P00533, T790M/L858R, cells depend on it); assay: as above; type: cell-based; settings: BAF3 EGFR L858R-T790M PURO POOL cells, read-out: IC50, BAF3 EGFR L858R-T790M PURO POOL
T2 construct: IC50, BAF3 EGFR L858R-T790M PURO POOL; other: BAF3 EGFR L858R-T790M PURO POOL cells, MTT; IC50, BAF3 EGFR L858R-T790M PURO POOL; other: BAF3 EGFR L858R-T790M PURO POOL cells; MTT
T2 sequence (P00533 whole entry T790M/L858R): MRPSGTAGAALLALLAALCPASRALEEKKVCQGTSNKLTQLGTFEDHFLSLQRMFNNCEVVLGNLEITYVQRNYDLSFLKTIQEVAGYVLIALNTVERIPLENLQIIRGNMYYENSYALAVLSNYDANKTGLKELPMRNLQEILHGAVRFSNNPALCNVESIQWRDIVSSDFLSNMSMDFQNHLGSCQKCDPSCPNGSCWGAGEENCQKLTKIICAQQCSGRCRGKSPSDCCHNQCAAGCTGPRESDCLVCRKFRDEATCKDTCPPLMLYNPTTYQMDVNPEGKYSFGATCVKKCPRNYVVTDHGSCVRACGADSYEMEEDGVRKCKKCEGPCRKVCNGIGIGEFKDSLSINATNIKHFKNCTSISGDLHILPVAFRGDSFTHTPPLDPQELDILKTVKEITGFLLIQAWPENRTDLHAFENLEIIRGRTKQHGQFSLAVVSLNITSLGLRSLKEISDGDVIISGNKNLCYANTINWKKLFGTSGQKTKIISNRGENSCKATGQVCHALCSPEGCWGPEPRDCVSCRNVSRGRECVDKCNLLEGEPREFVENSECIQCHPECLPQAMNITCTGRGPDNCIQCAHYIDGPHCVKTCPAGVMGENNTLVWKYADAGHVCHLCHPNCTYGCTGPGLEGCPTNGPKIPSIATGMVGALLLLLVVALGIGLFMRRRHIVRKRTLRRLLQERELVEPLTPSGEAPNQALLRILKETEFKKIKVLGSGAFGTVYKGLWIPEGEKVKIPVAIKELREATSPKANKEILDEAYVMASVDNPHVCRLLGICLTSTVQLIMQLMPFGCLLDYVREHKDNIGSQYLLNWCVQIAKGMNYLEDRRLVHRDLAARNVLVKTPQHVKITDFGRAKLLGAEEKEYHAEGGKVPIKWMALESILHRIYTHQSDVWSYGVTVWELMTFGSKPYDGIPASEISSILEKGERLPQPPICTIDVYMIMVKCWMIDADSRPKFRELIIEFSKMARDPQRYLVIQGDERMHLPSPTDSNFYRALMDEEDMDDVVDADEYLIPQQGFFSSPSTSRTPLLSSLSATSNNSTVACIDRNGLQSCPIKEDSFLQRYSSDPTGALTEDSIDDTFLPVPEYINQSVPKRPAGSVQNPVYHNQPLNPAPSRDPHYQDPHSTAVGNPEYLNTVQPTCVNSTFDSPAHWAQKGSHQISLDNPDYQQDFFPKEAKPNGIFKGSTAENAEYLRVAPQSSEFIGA
Summary of the method: as §1

EGFR L858R = EGFR L858R (Homo sapiens, UniProt P00533, L858R); assay: Kinase inhibitory activity against EGFR bearing the L858R mutation; type: biochemical; settings: 10 pt curves, 3 μM top concentration, 10 μM ATP; read-out: IC50 for kinase inhibition, EGFR L858R
EGFR L858R, sequence (P00533 25-1210 L858R): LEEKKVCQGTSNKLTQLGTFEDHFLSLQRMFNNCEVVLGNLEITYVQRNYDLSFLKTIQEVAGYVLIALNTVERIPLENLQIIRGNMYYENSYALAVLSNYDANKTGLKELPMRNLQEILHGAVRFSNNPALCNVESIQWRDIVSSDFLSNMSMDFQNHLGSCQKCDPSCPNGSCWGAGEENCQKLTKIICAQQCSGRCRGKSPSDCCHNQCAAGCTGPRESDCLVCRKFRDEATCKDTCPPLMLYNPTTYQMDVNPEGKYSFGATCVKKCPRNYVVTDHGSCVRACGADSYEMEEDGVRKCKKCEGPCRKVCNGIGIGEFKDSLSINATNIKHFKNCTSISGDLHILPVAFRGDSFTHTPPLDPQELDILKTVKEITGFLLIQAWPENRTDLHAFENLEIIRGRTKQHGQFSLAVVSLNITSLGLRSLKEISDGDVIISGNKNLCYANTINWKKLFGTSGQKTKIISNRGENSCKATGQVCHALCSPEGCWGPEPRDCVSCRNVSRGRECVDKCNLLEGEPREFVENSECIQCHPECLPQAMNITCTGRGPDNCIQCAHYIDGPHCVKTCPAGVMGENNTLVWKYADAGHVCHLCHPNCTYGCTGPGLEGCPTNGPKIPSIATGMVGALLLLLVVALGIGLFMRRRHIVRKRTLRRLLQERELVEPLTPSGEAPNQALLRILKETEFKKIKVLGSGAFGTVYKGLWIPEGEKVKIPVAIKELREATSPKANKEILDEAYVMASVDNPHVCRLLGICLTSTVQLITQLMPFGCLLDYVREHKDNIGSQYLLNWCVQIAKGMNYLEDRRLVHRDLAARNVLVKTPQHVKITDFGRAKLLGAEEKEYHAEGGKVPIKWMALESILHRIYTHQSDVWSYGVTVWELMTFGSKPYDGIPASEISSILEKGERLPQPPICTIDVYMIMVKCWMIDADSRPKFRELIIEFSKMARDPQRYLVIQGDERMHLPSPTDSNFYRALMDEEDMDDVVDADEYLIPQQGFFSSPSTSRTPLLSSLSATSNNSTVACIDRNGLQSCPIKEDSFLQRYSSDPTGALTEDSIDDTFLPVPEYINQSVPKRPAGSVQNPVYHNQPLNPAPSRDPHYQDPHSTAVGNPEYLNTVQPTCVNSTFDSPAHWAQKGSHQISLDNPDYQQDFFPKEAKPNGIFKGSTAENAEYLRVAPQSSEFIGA
Summary of the method: as §2

SMILES | IC50 [1] [µM] | IC50 [2] [µM] | IC50 (EGFR L858R/T790M) [µM] | GI50 [3] [µM] | GI50 [4] [µM] | IC50 (EGFR L858R) [µM]
C=CC(=O)Nc1cc(Nc2ncc(Cl)c(Nc3ccccc3P(C)(C)=O)n2)c(OC)cc1C#CCN1CCCC1 [Example 157, N-(5-((5-chloro-4-((2-(dimethylphosphoryl)phenyl)amino)pyrimidin-2-yl)amino)-4-methoxy-2-(3-(pyrrolidin-1-yl)prop-1-yn-1-yl)phenyl)acrylamide] | ≥ 0.25 | < 0.05 | < 0.05 | < 0.05 | < 0.05 | < 0.05
C=CC(=O)Nc1cc(Nc2ncc(Cl)c(Nc3ccccc3P(C)(C)=O)n2)c(OC)cc1C#CCN(C(C)C)C(C)C [Example 158, N-(5-((5-chloro-4-((2-(dimethylphosphoryl)phenyl)amino)pyrimidin-2-yl)amino)-2-(3-(diisopropylamino)prop-1-yn-1-yl)-4-methoxyphenyl)acrylamide] | ≥ 0.25 | < 0.05 | < 0.05 | < 0.05 | < 0.05 | < 0.05
C=CC(=O)Nc1cc(Nc2ncc(Cl)c(Nc3ccccc3P(C)(C)=O)n2)c(OC)cc1C#CCN1CCN(C)CC1 [Example 159, N-(5-((5-chloro-4-((2-(dimethylphosphoryl)phenyl)amino)pyrimidin-2-yl)amino)-4-methoxy-2-(3-(4-methylpiperazin-1-yl)prop-1-yn-1-yl)phenyl)acrylamide] | ≥ 0.25 | < 0.05 | < 0.05 | < 0.05 | 0.101 to 0.25 | < 0.05
C=CC(=O)Nc1cc(Nc2ncc(Cl)c(Nc3ccccc3P(C)(C)=O)n2)c(OC)cc1C#CCNC [Example 160, N-(5-((5-chloro-4-((2-(dimethylphosphoryl)phenyl)amino)pyrimidin-2-yl)amino)-4-methoxy-2-(3-(methylamino)prop-1-yn-1-yl)phenyl)acrylamide] | ≥ 0.25 | < 0.05 | < 0.05 | < 0.05 | < 0.05 | < 0.05
C=CC(=O)Nc1cc(Nc2ncc(Cl)c(Nc3ccccc3P(C)(C)=O)n2)c(OC)cc1C#CCN(C)CCOC [Example 161, N-(5-((5-chloro-4-((2-(dimethylphosphoryl)phenyl)amino)pyrimidin-2-yl)amino)-4-methoxy-2-(3-((2-methoxyethyl)(methyl)amino)prop-1-yn-1-yl)phenyl)acrylamide] | ≥ 0.25 | < 0.05 | < 0.05 | < 0.05 | < 0.05 | < 0.05
C=CC(=O)Nc1cc(Nc2ncc(Cl)c(Nc3ccccc3P(C)(C)=O)n2)c(OC)cc1C#CCN(C)CC [Example 162, N-(5-((5-chloro-4-((2-(dimethylphosphoryl)phenyl)amino)pyrimidin-2-yl)amino)-2-(3-(ethyl(methyl)amino)prop-1-yn-1-yl)-4-methoxyphenyl)acrylamide] | ≥ 0.25 | < 0.05 | < 0.05 | < 0.05 | < 0.05 | < 0.05
C=CC(=O)Nc1ccc(OC)c(Nc2cc(Nc3ncccc3P(C)(C)=O)ncn2)c1 [Example 163, N-(3-((6-((3-(dimethylphosphoryl)pyridin-2-yl)amino)pyrimidin-4-yl)amino)-4-methoxyphenyl)acrylamide] | ≥ 0.25 | 0.05 to 0.1 | 0.101 to 0.25 | ≥ 0.25 | ≥ 0.25 | < 0.05
C=CC(=O)Nc1ccc(OC)c(Nc2ncc(Cl)c(Nc3cnccc3P(C)(C)=O)n2)c1 [Example 164, N-(3-((5-chloro-4-((4-(dimethylphosphoryl)pyridin-3-yl)amino)pyrimidin-2-yl)amino)-4-methoxyphenyl)acrylamide] | ≥ 0.25 | ≥ 0.25 | < 0.05 | 0.101 to 0.25 | ≥ 0.25 | < 0.05
